Measured values reported in ChEMBL document CHEMBL4507268 (2021).

Assays:
Conditions in all cases: Compound concentration 1.0 uM
[1] = biological target: Mitogen-activated protein kinase 8 (Homo sapiens) (UniProt P45983)
[2] = biological target: T1, Mitogen-activated protein kinase kinase kinase 5 (Homo sapiens) (UniProt Q99683)
T1 sequence (whole entry): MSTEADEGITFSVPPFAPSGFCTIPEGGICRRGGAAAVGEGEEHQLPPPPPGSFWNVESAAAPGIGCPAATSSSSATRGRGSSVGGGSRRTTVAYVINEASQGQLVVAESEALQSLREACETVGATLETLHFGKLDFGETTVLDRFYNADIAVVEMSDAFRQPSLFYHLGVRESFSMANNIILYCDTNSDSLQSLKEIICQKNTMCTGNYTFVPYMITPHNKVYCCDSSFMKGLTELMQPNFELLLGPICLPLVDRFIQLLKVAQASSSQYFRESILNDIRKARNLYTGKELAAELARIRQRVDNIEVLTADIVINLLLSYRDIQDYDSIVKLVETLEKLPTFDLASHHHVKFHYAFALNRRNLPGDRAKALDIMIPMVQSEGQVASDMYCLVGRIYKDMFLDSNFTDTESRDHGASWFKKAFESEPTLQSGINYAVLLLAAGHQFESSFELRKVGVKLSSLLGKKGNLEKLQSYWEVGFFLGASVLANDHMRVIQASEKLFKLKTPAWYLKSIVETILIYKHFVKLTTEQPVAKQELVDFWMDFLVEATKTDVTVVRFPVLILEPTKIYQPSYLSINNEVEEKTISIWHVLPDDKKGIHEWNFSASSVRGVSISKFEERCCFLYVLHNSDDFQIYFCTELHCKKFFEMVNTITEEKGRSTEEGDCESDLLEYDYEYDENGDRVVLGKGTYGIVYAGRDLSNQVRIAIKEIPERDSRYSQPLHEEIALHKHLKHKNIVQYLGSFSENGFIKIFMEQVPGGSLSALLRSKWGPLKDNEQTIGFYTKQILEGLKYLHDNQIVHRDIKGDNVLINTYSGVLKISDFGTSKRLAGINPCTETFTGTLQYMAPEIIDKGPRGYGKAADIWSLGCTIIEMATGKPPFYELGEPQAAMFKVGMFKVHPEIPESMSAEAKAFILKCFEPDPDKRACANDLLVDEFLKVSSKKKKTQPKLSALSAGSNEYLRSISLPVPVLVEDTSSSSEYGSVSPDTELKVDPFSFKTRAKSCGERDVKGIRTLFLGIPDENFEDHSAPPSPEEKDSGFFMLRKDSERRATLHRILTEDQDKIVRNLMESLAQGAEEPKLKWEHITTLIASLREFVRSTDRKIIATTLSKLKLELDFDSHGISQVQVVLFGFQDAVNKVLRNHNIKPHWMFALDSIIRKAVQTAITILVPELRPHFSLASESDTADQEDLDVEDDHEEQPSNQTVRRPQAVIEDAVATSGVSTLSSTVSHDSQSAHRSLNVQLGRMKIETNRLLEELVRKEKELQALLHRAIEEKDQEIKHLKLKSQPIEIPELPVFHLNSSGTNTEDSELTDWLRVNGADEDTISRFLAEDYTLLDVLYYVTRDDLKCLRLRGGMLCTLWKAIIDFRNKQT

[3] = biological target: T2, Rhodopsin kinase GRK7 (Homo sapiens) (UniProt Q8WTQ7)
T2 sequence (whole entry): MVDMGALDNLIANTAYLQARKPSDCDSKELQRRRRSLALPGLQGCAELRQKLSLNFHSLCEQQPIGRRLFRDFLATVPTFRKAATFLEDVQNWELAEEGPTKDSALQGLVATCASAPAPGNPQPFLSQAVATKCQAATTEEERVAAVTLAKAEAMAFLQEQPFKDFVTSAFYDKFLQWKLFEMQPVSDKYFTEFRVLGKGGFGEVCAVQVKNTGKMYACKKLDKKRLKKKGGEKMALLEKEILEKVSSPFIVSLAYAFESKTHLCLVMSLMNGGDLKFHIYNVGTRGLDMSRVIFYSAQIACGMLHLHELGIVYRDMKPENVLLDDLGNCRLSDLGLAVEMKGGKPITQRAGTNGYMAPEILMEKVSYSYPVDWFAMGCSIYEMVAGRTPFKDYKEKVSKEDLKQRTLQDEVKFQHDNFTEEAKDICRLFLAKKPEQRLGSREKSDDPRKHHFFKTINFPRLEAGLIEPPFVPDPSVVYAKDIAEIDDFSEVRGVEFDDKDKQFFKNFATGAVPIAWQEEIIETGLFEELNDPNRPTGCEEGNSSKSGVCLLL

[4] = biological target: Homeodomain-interacting protein kinase 3 (Homo sapiens) (UniProt Q9H422)
[5] = biological target: Tyrosine-protein kinase Lck (Homo sapiens) (UniProt P06239)
[6] = biological target: Macrophage-stimulating protein receptor (Homo sapiens) (UniProt Q04912)
[7] = biological target: T3, Activin receptor type-1B (Homo sapiens) (UniProt P36896)
T3 sequence (whole entry): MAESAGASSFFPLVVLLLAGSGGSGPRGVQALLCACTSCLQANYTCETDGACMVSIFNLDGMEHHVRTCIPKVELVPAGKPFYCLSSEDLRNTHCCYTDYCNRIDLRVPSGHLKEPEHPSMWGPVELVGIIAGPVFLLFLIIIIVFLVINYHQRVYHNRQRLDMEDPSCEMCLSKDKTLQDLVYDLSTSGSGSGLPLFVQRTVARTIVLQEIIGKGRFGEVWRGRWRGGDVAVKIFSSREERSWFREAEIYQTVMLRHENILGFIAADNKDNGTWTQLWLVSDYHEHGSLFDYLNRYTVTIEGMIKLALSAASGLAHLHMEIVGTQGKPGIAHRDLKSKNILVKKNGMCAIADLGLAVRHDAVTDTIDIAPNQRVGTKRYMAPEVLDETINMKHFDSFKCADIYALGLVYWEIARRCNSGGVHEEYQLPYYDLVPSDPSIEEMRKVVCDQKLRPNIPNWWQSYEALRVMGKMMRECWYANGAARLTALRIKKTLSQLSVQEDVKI

[8] = biological target: Fibroblast growth factor receptor 1 (Homo sapiens) (UniProt P11362)
[9] = biological target: Serine/threonine-protein kinase 24 (Homo sapiens) (UniProt Q9Y6E0)

Measured: % residual kinase activity

Chain of Homeodomain-interacting protein kinase 3 (Homo sapiens) (Q9H422 whole entry, looked up): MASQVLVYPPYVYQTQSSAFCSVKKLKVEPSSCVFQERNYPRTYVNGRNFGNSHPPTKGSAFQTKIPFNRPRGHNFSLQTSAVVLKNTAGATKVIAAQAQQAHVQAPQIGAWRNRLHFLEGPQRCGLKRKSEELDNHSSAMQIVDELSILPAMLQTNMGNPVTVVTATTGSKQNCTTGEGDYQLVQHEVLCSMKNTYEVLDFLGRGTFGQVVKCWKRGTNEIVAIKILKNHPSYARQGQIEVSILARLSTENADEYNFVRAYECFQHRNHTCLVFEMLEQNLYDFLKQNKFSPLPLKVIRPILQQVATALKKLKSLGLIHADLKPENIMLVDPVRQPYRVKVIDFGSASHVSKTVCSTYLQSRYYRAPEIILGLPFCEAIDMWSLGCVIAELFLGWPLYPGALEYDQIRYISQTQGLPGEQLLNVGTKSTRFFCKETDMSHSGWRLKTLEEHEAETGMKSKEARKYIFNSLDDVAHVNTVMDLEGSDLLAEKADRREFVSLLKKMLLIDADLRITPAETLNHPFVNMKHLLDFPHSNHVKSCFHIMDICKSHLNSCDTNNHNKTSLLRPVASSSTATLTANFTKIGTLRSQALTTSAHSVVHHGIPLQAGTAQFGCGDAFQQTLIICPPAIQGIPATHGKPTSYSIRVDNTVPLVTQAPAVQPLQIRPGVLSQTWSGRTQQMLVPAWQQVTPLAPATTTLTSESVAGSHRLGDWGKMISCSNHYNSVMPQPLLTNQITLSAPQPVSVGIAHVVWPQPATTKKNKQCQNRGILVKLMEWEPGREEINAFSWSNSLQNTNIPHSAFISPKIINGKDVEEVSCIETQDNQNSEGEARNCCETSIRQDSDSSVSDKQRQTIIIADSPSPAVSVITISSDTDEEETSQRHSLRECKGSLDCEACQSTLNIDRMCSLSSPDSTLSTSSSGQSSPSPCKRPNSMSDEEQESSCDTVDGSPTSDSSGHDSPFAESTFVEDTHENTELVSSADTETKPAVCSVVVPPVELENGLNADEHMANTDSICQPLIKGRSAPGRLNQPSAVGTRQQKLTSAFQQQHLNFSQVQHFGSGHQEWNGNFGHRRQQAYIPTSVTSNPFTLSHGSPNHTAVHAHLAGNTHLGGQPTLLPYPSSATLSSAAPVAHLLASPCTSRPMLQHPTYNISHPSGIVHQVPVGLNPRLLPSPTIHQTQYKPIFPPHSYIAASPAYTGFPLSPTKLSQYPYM
Chain of Fibroblast growth factor receptor 1 (Homo sapiens) (P11362 22-822 limits assumed): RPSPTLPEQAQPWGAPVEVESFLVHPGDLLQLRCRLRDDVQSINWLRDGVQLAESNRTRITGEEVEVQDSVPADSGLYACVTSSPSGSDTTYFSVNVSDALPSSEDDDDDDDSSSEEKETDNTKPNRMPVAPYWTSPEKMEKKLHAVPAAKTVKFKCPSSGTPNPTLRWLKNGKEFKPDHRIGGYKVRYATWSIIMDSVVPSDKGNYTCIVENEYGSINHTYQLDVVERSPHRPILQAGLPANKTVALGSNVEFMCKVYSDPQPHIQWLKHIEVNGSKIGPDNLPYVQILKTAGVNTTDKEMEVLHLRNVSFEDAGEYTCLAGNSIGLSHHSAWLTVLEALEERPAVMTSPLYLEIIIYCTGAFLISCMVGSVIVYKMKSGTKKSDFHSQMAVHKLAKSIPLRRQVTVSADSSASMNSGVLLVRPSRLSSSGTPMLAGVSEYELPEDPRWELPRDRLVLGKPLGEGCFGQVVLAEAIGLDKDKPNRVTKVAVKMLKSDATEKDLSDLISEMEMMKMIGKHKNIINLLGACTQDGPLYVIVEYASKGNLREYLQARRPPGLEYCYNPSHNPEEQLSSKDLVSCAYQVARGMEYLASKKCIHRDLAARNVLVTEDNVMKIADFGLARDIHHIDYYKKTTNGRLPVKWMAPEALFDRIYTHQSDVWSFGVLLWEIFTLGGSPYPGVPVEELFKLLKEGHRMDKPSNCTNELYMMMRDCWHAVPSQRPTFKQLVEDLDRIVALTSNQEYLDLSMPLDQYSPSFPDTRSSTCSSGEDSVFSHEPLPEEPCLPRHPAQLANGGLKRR
Chain of Mitogen-activated protein kinase 8 (Homo sapiens) (P45983 whole entry): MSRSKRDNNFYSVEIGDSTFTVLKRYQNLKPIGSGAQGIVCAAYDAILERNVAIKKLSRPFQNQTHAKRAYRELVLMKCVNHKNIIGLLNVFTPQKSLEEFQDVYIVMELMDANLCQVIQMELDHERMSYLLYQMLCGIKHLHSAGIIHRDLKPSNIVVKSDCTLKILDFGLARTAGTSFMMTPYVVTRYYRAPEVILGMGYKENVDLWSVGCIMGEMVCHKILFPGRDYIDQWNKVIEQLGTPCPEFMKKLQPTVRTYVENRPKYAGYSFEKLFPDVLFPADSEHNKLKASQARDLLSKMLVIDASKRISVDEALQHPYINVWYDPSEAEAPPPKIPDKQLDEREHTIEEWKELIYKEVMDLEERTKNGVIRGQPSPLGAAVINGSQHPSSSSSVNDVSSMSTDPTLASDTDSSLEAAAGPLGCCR
Chain of Tyrosine-protein kinase Lck (Homo sapiens) (P06239 2-509 limits assumed): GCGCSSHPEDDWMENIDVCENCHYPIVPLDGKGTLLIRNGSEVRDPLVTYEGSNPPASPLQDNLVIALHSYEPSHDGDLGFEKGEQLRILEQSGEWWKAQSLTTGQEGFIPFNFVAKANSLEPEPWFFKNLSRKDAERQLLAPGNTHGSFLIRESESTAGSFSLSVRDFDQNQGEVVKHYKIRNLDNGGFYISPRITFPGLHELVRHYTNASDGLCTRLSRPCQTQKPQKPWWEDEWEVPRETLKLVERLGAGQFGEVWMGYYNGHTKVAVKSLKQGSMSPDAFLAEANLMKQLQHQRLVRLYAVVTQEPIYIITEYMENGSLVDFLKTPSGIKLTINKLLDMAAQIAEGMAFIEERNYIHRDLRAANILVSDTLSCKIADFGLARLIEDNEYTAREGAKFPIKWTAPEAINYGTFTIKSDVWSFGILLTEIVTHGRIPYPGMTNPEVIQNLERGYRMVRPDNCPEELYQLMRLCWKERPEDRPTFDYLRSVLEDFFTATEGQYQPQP
Chain of Macrophage-stimulating protein receptor (Homo sapiens) (Q04912 25-304 limits assumed): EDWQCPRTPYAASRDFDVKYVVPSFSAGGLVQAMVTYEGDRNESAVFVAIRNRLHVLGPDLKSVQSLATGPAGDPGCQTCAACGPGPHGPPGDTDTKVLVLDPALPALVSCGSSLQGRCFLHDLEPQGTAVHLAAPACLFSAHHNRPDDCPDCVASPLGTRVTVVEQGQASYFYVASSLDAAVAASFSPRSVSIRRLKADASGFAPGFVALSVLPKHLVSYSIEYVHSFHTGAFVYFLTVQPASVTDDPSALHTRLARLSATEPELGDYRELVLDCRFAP
Chain of Macrophage-stimulating protein receptor (Homo sapiens) (Q04912 310-1400 limits assumed): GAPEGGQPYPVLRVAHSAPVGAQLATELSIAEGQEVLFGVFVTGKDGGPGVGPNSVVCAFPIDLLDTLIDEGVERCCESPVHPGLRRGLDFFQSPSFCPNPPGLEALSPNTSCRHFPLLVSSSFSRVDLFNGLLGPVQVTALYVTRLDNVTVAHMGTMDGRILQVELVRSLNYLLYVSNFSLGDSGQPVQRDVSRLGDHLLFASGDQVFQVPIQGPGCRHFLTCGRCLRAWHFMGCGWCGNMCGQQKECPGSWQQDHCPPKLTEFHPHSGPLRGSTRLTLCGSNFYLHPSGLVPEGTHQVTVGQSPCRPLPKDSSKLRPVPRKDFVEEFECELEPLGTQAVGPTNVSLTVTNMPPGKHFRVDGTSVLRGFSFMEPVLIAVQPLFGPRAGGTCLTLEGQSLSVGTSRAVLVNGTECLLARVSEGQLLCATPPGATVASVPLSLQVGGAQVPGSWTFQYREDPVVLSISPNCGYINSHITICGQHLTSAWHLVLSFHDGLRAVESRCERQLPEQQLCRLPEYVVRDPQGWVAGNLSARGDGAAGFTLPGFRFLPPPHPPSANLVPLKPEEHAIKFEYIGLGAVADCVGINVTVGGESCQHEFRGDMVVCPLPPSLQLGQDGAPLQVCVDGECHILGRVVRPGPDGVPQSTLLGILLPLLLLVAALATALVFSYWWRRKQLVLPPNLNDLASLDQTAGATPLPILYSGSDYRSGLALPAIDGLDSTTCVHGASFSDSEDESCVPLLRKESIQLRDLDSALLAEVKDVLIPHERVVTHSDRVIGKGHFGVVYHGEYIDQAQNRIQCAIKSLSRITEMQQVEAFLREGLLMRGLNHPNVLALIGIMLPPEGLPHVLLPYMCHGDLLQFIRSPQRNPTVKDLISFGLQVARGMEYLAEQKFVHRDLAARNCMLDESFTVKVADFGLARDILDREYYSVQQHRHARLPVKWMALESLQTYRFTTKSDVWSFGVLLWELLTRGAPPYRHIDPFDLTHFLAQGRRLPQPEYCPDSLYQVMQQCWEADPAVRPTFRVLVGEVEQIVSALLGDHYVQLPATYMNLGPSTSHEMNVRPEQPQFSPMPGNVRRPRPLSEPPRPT
Chain of Serine/threonine-protein kinase 24 (Homo sapiens) (Q9Y6E0 whole entry, looked up): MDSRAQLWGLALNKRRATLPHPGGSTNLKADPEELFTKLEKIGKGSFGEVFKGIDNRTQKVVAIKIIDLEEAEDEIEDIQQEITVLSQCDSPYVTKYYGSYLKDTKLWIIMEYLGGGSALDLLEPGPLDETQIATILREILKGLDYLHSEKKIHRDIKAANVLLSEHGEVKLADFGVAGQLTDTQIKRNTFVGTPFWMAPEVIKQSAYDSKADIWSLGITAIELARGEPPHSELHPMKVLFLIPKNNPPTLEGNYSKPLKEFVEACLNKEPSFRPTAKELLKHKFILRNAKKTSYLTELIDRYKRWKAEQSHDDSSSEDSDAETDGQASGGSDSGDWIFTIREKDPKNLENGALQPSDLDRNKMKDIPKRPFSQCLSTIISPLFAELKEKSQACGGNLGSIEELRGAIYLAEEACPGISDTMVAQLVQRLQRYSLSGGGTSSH

CN1CCN(c2cnc3c(C4CCN(C(=O)c5ccc(OC(F)(F)F)cc5N)CC4)ncnc3c2)CC1 [BAY-885]
inactive: [1] 104% | [2] 99% | [3] 101% | [4] 108% | [5] 98% | [6] 100% | [7] 98% | [8] 101% | [9] 99%
